# Where a SMILES comes first, the peptide text is derived from it.
row,Structure (SMILES),logP
1,CN1CCC(=C2c3ccccc3CCc3cccnc32)CC1,3.59
2,Cc1cccc(C)c1NC(=O)c1ccc(CN2CCOCC2)cc1,2
3,CCN(CC)N=Nc1ccccc1C(N)=O,2.96
4,Oc1c(I)cc(I)cc1I,4.5
5,CC(=O)OC1(c2ccccc2)CCN(C)C(C)C1C (stereo not given),2.52
6,Cc1cc(O)c(C)c(C)c1O,1.69
7,CCC(C)NC(=O)C(=Cc1ccccc1)Cc1ccccc1 (stereo not given),3.99
8,C=C(C)c1c(OC)cc(Cc2cnc(N)nc2N)cc1OCC,2.65
9,O=C(NCO)c1c(I)c(C(=O)NCCO)c(I)c(N(CC(O)CO)C(=O)C(O)CO)c1I (stereo not given),-2.65
10,NC1=NCC2c3ccccc3Cc3ccccc3N12 (stereo not given),3.51
11,Cc1ccc2c(=O)[nH]c(=O)[nH]c2c1,0.55
12,Cc1n[nH]c(C(=O)NC2CC2)c1[N+](=O)[O-],0.25
13,C[Si](Cn1cncn1)(c1ccc(F)cc1)c1ccc(F)cc1,3.7
14,CCCCCCCOc1cccc(NC(=O)OCCN2CCOCC2)c1,5.28
15,Cc1nc([N+](=O)[O-])cn1C,-0.24
16,Cc1cc(=O)oc2cc(OC3OC(CO)C(O)C(O)C3O)ccc12 (stereo not given),-0.66
17,CCCCOC(=O)c1cnc2n(c1=O)C(C)CCC2 (stereo not given),1.77
18,CC(=O)OCC(O)Cn1ccnc1[N+](=O)[O-] (stereo not given),-0.37
19,C#CCOc1c(Cl)cc(NC=NOCCC)cc1Cl,4
20,CNC(=O)C(Cc1ccc(O)cc1)NC(C)=O (stereo not given),-0.32
21,O=C(Cn1c(=O)sc2ccc(Cl)cc21)N1CCN(CCOS(=O)(=O)O)CC1,-1.47
22,COCCNC(=S)Cn1cnc([N+](=O)[O-])n1,0.25

row,Structure (SMILES),logP
1,CCN1C(=O)NC(=O)C(=O)C1=O,-0.32
2,CC1CC2C3CCC4=CC(=O)C=CC4(C)C3(F)C(O)CC2(C)C1(O)C(=O)NC(C)(C)C (stereo not given),3.2
3,CCCCOc1ccccc1NC(=O)OCCN1CCOCC1,3.25
4,CC1(C)COC(Cn2cncn2)(c2ccc(-n3ccnc3)cc2Cl)OC1,2.26
5,O=[N+]([O-])c1ccc2c(O)cccc2c1,3.5
6,CC1OC(OC2C(C)OC(OC3C(C)OC(OC4CCC5(C)C(CCC6C5CCC5(C)C(C7=CC(=O)OC7)C(OC=O)CC65OC=O)C4)CC3OC=O)CC2OC=O)CC(O)C1OC=O (stereo not given),3.16
7,Cc1ccc(NN=C(C#N)C#N)c([N+](=O)[O-])c1,2.5
8,CCCCCCC(C)(C)c1ccc(C2CC(O)CC3CCC(O)CC32)c(O)c1 (stereo not given),6.13
9,CNC(=NC#N)Nc1cccc(-c2csc(N=C(N)N)n2)c1,1.6
10,COC(O)Cn1c(Br)cnc1[N+](=O)[O-] (stereo not given),0.16
11,NC(=O)c1cc(-c2ccccc2)nnc1NCCN1CCOCC1,1.86
12,CCC(C)OC(=O)C(C(=O)OC(C)CC)=C1SC=CS1 (stereo not given),4.89
13,CS(=O)(=O)CCOCn1ccnc1C=NO,-0.84
14,O=c1[nH]c(Nc2ccccc2)nc2c1ncn2CCO,0.83
15,O=C1C(=O)N(c2ccccc2)C(=O)c2ccccc21,1.14
16,CC(=O)NC(Cc1ccccc1)C(=O)NC(CCC(=O)O)C(=O)NC(Cc1ccccc1)C(N)=O (stereo not drawn) (Ac-Phe-Glu-Phe-NH2; configuration not given here),0.65
17,COC(=O)c1ccc2[nH]ccc2c1,2.58
18,CCC(=O)C(CS(=O)(=O)c1ccc(C)cc1)c1ccc(Cl)cc1 (stereo not given),3.43
19,Cc1cc([N+](=O)[O-])ccc1NN=C(C#N)C#N,3.55
20,CC12CCC(=O)C=C1CC(C#N)C1C2CCC2(C)C1CCC21CCC(=O)O1 (stereo not given),1.67
21,O=C(c1ccc(F)cc1)C1CCN(CCn2c(=O)[nH]c3ccccc3c2=O)CC1,3.29
22,COc1cccc(N2CCN(CCN(C)C)C2=O)c1,1.76

row,Structure (SMILES),logP
1,Cc1cc(Cl)cc(Cl)c1,3.99
2,O=c1[nH]nc(SCc2ccccc2)[nH]1,1.47
3,O=c1cc2ccccc2n[nH]1,0.68
4,O=[N+]([O-])C=C1NCCN1Cc1cnc(Cl)s1,-0.04
5,Cc1n[nH]c(C(=O)N2CCCCC2)c1[N+](=O)[O-],0.79
6,O=C(O)C(OCc1ccc(Cl)cc1)c1ccccc1 (stereo not given),2.6
7,Cc1nccc2c1[nH]c1ccccc12,3.1
8,O=[N+]([O-])C=C1NCCN1Cc1ccc(Cl)nc1,-0.19
9,Clc1cc(Cl)c(-c2cc(Cl)c(Cl)c(Cl)c2)c(Cl)c1,7.25
10,CCN(CC)S(=O)(=O)N(CC)C1C=C2c3cccc4[nH]cc(c34)CC2N(C)C1 (stereo not given),3.09
11,CCCNC(=O)C1(O)C(C)CC2C3CCC4=CC(=O)C=CC4(C)C3(F)C(O)CC21C (stereo not given),2.59
12,NC(=O)c1ccccc1N=NN1CCC1,2.91
13,O=c1ccn(C2C=C(CO)C(O)C2O)c(=O)[nH]1 (stereo not given),-2.19
14,CCN1C(=O)C(=O)c2c(OC)cc(OC)cc2C1=O,1.23
15,O=C(O)C(Cc1ccc(O)cc1)n1cccc1 (stereo not given),1.56
16,c1ccc(OCc2cccc(CN3CCCC3)c2)cc1,3.75
17,OC1CCN(CCCc2ccccc2CSc2ccccc2)CC1,3.85
18,Cc1n[nH]c(C(=O)NC2CCCC2)c1[N+](=O)[O-],1.24
19,O=[N+]([O-])C=C1NCCN1CCc1ccc(Cl)nc1,-0.23
20,c1ccc2c3c([nH]c2c1)CN1CCNCC1C3 (stereo not given),0.36
21,Cc1ccc(Cl)c(Cl)c1Cl,4.56
